For 25 compounds, inhibition and Ki results are on record in patent publication US7045528B2, “Benzofused heterozryl amide derivatives of thienopyridines useful as therapeutic agents, pharmaceutical compositions including the same, and methods for their use” (Agouron Pharmaceuticals, Inc., priority 2002, dated 2006).

Where two headings read alike, the source gives them in different places.

The target in this assay is T1, unphosphorylated VEGF-R2Δ50 (FLVK) (Homo sapiens, UniProt P35968, DEL940-989/E990V).
T1 construct: VEGF-R2Δ50 contains residues 806–939 and 990–1171; made in house; host or cells: baculovirus/insect cell system
T1 sequence (P35968 with tags, fused parts or gaps DEL940-989/E990V limits assumed): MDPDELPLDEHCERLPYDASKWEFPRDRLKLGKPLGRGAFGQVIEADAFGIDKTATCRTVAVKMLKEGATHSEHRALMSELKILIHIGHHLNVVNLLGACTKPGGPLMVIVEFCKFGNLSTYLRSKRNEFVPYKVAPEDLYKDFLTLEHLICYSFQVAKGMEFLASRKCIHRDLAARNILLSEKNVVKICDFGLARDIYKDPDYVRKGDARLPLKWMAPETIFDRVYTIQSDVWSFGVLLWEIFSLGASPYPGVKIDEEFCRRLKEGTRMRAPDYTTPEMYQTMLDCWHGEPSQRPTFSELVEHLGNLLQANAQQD
As to the kind of experiment: VEGF-R2 coupled spectrophotometric assay, unphosphorylated VEGF-R2Δ50 (FLVK). It counts as biochemical. The note with it: for inhibition at 0.05 µM: read-out: FLVK (% inh @ 50 nM). The source says:
VEGF-R2 Construct for Assay:
This construct determines the ability of a test compound to inhibit tyrosine kinase activity. A construct (VEGF-R2Δ50) of the cytosolic domain of human vascular endothelial growth factor receptor 2 (VEGF-R2) lacking the 50 central residues of the 68 residues of the kinase insert domain was expressed in a baculovirus/insect cell system. Of the 1356 residues of full-length VEGF-R2, VEGF-R2Δ50 contains residues 806–939 and 990–1171, and also one point mutation (E990V) within the kinase insert domain relative to wild-type VEGF-R2. Autophosphorylation of the purified construct was performed by incubation of the enzyme at a concentration of 4 μM in the presence of 3 mM ATP and 40 mM MgCl2 in 100 mM HEPES, pH 7.5, containing 5% glycerol and 5 mM DTT, at 4° C. for 2 h. […] See Parast et al., Biochemistry, 37, 16788–16801 (1998).
Coupled Spectrophotometric (FLVK-P) Assay
The production of ADP from ATP that accompanies phosphoryl transfer was coupled to oxidation of NADH using phosphoenolpyruvate (PEP) and a system having pyruvate kinase (PK) and lactic dehydrogenase (LDH). The oxidation of NADH was monitored by following the decrease of absorbance at 340 nm (e340=6.22 cm^−1 mM^−1) using a Beckman DU 650 spectrophotometer. Assay conditions for phosphorylated VEGF-R2Δ50 (indicated as FLVK-P in the tables below) were the following: 1 mM PEP; 250 μM NADH; 50 units of LDH/mL; 20 units of PK/mL; 5 mM DTT; 5.1 mM poly(E4Y1); 1 mM ATP; and 25 mM MgCl2 in 200 mM HEPES, pH 7.5. Assay conditions for unphosphorylated VEGF-R2Δ50 (indicated as FLVK in the tables) were the following: 1 mM PEP; 250 μM NADH; 50 units of LDH/mL; 20 units of PK/mL; 5 mM DTT; 20 mM poly(E4Y1); 3 mM ATP; and 60 mM MgCl2 and 2 mM MnCl2 in 200 mM HEPES, pH 7.5. Assays were initiated with 5 to 40 nM of enzyme. Ki values were determined by measuring enzyme activity in the presence of varying concentrations of test compounds. […] The binding inhibitions were fitted to equation as described by Morrison. The data were analyzed using Enzyme Kinetic and Kaleidagraph software.

[1] abbreviates: 50 nM compound, unphosphorylated VEGF-R2Δ50.

As a reminder, the Ki is the equilibrium dissociation constant of an inhibitor or competing ligand from its target. High values mean lower affinity, low ones higher affinity. In the case of `CNC(=O)c1c(C(C)C)oc2cc(Oc3ccnc4cc(C(=O)N5CC[C@@H](OC)C5)sc34)ccc12` [Example 15, 6-(2-[3-methoxypyrrolidine-1-carbonyl]thieno[3,2-b]pyridin-7-yloxy)-2-(1-methylethyl)benzofuran-3-carboxylic acid methylamide], the inhibition at 0.05 µM under setting [1] was 13%. Under “unphosphorylated VEGF-R2Δ50”, this compound displayed an inhibitory constant (Ki) of 48.3 nM.

Take `CNC(=O)c1cn(C)c2cc(Oc3ccnc4cc(C(=O)N5CC[C@@H](O)C5)sc34)ccc12` [Example 21, 6-{2-[3-(R)-hydroxy-pyrrolidine-1-carbonyl]thieno[3,2-b]pyridin-7-yloxy}-1-methyl-1H-indole-3-carboxylic acid methylamide]: the inhibition at 0.05 µM under setting [1] came out at 43%. The compound also registered an inhibition constant Ki (unphosphorylated VEGF-R2Δ50) of 13.1 nM. As for `CNC(=O)c1cn(C)c2cc(Oc3ccnc4cc(C(=O)N5CC[C@@H](OC)C5)sc34)ccc12` [Example 22, 6-[2-(3-methoxypyrrolidine-1-carbonyl)-thieno[3,2-b]pyridin-7-yloxy]-1-methyl-1H-indole-3-carboxylic acid methylamide], under setting [1], the inhibition at 0.05 µM came to 38%. In addition, the affinity (unphosphorylated VEGF-R2Δ50), expressed as Ki, was 25.8 nM. The like results for `CNC(=O)c1cn(C)c2cc(Oc3ccnc4cc(-c5nccn5C)sc34)ccc12` [Example 23, 1-Methyl-6-[2-(1-methyl-1H-imidazol-2-yl)-thieno[3,2-b]pyridin-7-yloxy]-1H-indole-3-carboxylic acid methylamide] were, in that order, 19% and 78 nM. The corresponding values for `CNC(=O)c1c(C)n(C)c2cc(Oc3ccnc4cc(C(=O)N(C)CCN(C)C)sc34)ccc12` [Example 29, N-[2-(Dimethylamino)ethyl]-7-({1,2-dimethyl-3-[(methylamino)carbonyl]-1H-indol-6-yl}oxy)-N-methylthieno[3,2-b]pyridine-2-carboxamide] are 6% and 88.8 nM.

Regarding `CNC(=O)c1c(C)n(C)c2cc(Oc3ccnc4cc(C(=O)N(C)CCO)sc34)ccc12` [Example 31], the inhibition at 0.05 µM under setting [1] was determined as 25%. In addition, the inhibition constant (Ki) (unphosphorylated VEGF-R2Δ50) turned out to be 30.2 nM.

Consider `CNC(=O)c1c(C)n(C)c2cc(Oc3ccnc4cc(C(=O)N5C[C@H](OC)[C@H](OC)C5)sc34)ccc12` [Example 36, 6-[2-(3,4-Dimethoxy-pyrrolidine-1-carbonyl)-thieno[3,2-b]pyridin-7-yloxy]-1,2-dimethyl-1H-indole-3-carboxylic acid methylamide], for which the inhibition at 0.05 µM under setting [1] came out at 41%. For the same compound, under “unphosphorylated VEGF-R2Δ50”, the affinity, expressed as Ki, was 11.5 nM.

In the case of `CNC(=O)c1c(C)n(C)c2cc(Oc3ccnc4cc(-c5nc(C(C)(C)O)co5)sc34)ccc12` [Example 47, 6-{2-[4-(1-Hydroxy-1-methyl-ethyl)-oxazol-2-yl]-thieno[3,2-b]pyridin-7-yloxy}1,2-dimethyl-1H-indole-3-carboxylic acid methylamide], the inhibition at 0.05 µM under setting [1] came out at 41%. The compound further showed a Ki (unphosphorylated VEGF-R2Δ50) of 19.7 nM.

In the case of `CNC(=O)c1c(C)n(C)c2cc(Oc3ccnc4cc(-c5ncccn5)sc34)ccc12` [Example 50, 1,2-Dimethyl-6-(2-pyrimidin-2-yl-thieno[3,2-b]pyridin-7-yloxy)-1H-indole-3-carboxylic acid methylamide], the inhibition at 0.05 µM under setting [1] was determined as 36%. The compound also displayed an inhibitory constant (Ki) (unphosphorylated VEGF-R2Δ50) of 36.5 nM. The corresponding values for `CNC(=O)c1c(C)n(C)c2cc(Oc3ccnc4cc(-c5cccc(CN(C)C)n5)sc34)ccc12` [Example 52, 6-[2-(6-Dimethylaminomethyl-pyridin-2-yl)-thieno[3,2-b]pyridin-7-yloxy]-1,2-dimethyl-1H-indole-3-carboxyllc acid methylamide] are 41% and 24.9 nM. The like results for `Cc1c(C(=O)NCC(C)C)c2ccc(Oc3ccnc4cc(-c5nccs5)sc34)cc2n1C` [Example 67, 1,2-Dimethyl-4(2-thiazol-2-yl-thieno[3,2-b]pyridin-7-yloxy)-1 indole-3-carboxylic acid isobutyl-amide] were, in that order, 58% and 12.5 nM. In the case of `CCC(=O)c1cc2nccc(Oc3ccc4c(C(=O)NCCCN5CCOCC5)c(C)n(C)c4c3)c2s1` [Example 68, 1,2-Dimethyl-6-(2-propionyl-thieno[3,2-b]pyridin-7-yloxy)-1H-indole-3-carboxylic acid (3-morpholin-4-yl-propyl)-amide], under setting [1], the inhibition at 0.05 µM was 37%. Regarding `CCn1c(C)c(C(=O)NC)c2ccc(Oc3ccnc4cc(C(=O)N5CCC5)sc34)cc21` [Example 71, 6-[2-(Azetidine-1-carbonyl)thieno[3,2-b]pyridin-7-yloxy]-1-ethyl-2-methyl-1H-indole-3-carboxylic acid methylamide], the inhibition at 0.05 µM stood at 5%. Still for that read-out and setting: in the case of `CCn1c(C)c(C(=O)NC)c2ccc(Oc3ccnc4cc(-c5nccn5C)sc34)cc21` [Example 72, 1-Ethyl-2-methyl-6-[2-(1-methyl-1H-imidazol-2-yl)-thieno[3,2-b]pyridin-7-yloxy]-1H-indole-3-carboxylic acid methylamide] it was 2%. Turning to `CCc1c(C(=O)NC)c2ccc(Oc3ccnc4cc(C(=O)N5CC[C@@H](O)C5)sc34)cc2n1C` [Example 73, 2-Ethyl-6-[2-(3-hydroxy-pyrrolidine-1-carbonyl)-thieno[3,2-b]pyridin-7-yloxy]-1-methyl-1H-indole-3-carboxylic acid methylamide], the inhibition at 0.05 µM under setting [1] was 48%. The compound further gave a Ki (unphosphorylated VEGF-R2Δ50) of 10.3 nM.

Take `CNC(=O)c1c(C(F)(F)F)n(C)c2cc(Oc3ccnc4cc(-c5nccn5C)sc34)ccc12` [Example 76, 1-Methyl-6-[2-(1-methyl-1H-imidazol-2-yl)-thieno[3,2-b]pyridin-7-yloxy]-2-trifluoromethyl-1H-indole-3-carboxylic acid methylamide]: under setting [1], the inhibition at 0.05 µM was 36%. Further, affinity (unphosphorylated VEGF-R2Δ50) was put at a Ki of 6.26 nM. The like results for `CCc1oc2cc(Oc3ccnc4cc(C(=O)N5CCC[C@H]5COC)sc34)ccc2c1C(=O)NC` [Example 96, 2-ethyl-6-(2-[(S)-2-(methoxymethyl)pyrrolidine-1-carbonyl]thieno[3,2-b]pyridin-7-yloxy)-benzofuran-3-carboxylic acid methyl amide] were, in that order, 51% and 9.61 nM.

`Cc1oc2cc(Oc3ccnc4ccsc34)ccc2c1C(=O)O` [Example 100, 2-Methyl-6[thieno[3,2-b]pyridin-7-yloxy]benzofuran-3-carboxylic acid]: under setting [1], the inhibition at 0.05 µM worked out at 0%. For the compound `Cc1oc2cc(Oc3ccnc4ccsc34)ccc2c1C(=O)NCc1ccncc1` [Example 107, 2-Methyl-6-[Thieno(3,2-b)pyridin-7-yloxy]benzofuran-3-carboxylic acid 2-[(4-pyridyl)-methyl] amide], the inhibition at 0.05 µM under setting [1] worked out at 17%. In addition, the inhibition constant Ki (unphosphorylated VEGF-R2Δ50) was determined as 36.7 nM.

Take `Cc1oc2cc(Oc3ccnc4ccsc34)ccc2c1C(=O)NCCc1ccc(S(N)(=O)=O)cc1` [Example 108, 2-Methyl-6-(thieno[3,2-b]pyridin-7-yloxy)-benzofuran-3-carboxylic acid [2-(4-sulfamoyl-phenyl)-ethyl]-amide]: under setting [1], the inhibition at 0.05 µM worked out at 61%. For `Cc1oc2cc(Oc3ccnc4ccsc34)ccc2c1C(=O)NCCOC(C)C` [Example 109, 2-Methyl-6-(thieno[3,2-b]pyridin-7-yloxy)-benzofuran-3-carboxylic acid (2-isopropoxy-ethyl)-amide], the inhibition at 0.05 µM under setting [1] is 82%.

In the case of `Cc1oc2cc(Oc3ccnc4ccsc34)ccc2c1C(=O)NCCC1CCCN1C` (stereo not shown) [Example 110, 2-Methyl-6-(thieno[3,2-b]pyridin-7-yloxy)-benzofuran-3-carboxylic acid [2-(1-methyl-pyrrolidin-2-yl)-ethyl]-amide], the inhibition at 0.05 µM under setting [1] is 21%. On the same count and under the same terms, the figure for `Cc1cc(NC(=O)c2c(C)oc3cc(Oc4ccnc5ccsc45)ccc23)n[nH]1` [Example 111, 2-Methyl-6-(thieno[3,2-b]pyridin-7-yloxy)-benzofuran-3-carboxylic acid (5-methyl-1H-pyrazol-3-yl)-amide] is 96%; for `Cc1oc2cc(Oc3ccnc4ccsc34)ccc2c1C(=O)NCCCN1CCOCC1` [Example 112, 2-Methyl-6-(thieno[3,2-b]pyridin-7-yloxy)benzofuran-3-carboxylic acid (3-morpholin-4-ylpropyl)-amide] it is 91%. The same measure, in the same setting: in the case of `Cc1oc2cc(Oc3ccnc4ccsc34)ccc2c1C(=O)Nc1ccc2[nH]ccc2c1` [Example 113, 2-Methyl-6-(thieno[3,2-b]pyridin-7-yloxy)-benzofuran-3-carboxylic acid (1H-indol-5-yl)-amide] it was 99%.
